These results are taken from US20100056468A1, “Pyrimidine Derivatives As Anticancer Agents” (University Health Network, priority 2007, published 2010).

Bounds are passed on as bounds.

As usually defined, the IC50 is the point on the concentration scale where inhibition reaches its midpoint. What is called Ki is a dissociation constant, usually derived from enzyme kinetics or from competition with a known ligand. Read a high Ki as a looser hold on the target.

Experiment [1] relates to leukemias (OCI-AML-1, OCI-AML-2, SKW3), lymphomas (OCI-Ly-7), multiple myeloma (OCI-My-2). Description: In vitro cell proliferation assay (WST.1), summary over cell lines. The following applies: Homo sapiens; OCI-AML-1, OCI-AML-2, SKW3, OCI-Ly-7, OCI-My-2; read-out: IC50 values, range over cell lines. In kind it is cell-based. The method, then: (§1) These cell lines were grown in Iscove's MDM supplemented with 5% fetal calf serum (FCS), 50 μM 2-mercaptoethanol, 100 μg/ml penicillin, and 100 μg/ml streptomycin. Cell lines growing in suspension were maintained at 0.5-1.5×10^6 cell/ml, while adherent cell lines were maintained at subconfluent densities.
(§2) Cell lines were seeded in triplicate at 10^4 cells/100 μl in 96-well plates. Peripheral blood mononuclear cells were seeded in triplicate at 10^5 cells/100 μl in 96-well plate. Different test compounds were added immediately at final concentrations ranging between 0 to 100 μM. All compounds were dissolved in sterile deionized water, so water was added to the control wells. On day 3, WST.1 assay (Roche) was used to measure the effect of different test compounds on cell growth. WST.1 assay is a calorimetric assay for the nonradioactive quantification of cell proliferation, cell viability, and cytotoxicity. The assay was performed according to manufacturer's instructions (Roche). It relies on the cleavage by cellular enzymes of WST.1 (water soluble tetrazolium salt: 4-[3-(4-iodophenyl)-2-(4-nitrophenyl)-2H-5-tetrazolio]-1,3-benzene disulfonate) to formazan. The amount of formazan dye formed correlates to the number of metabolically active cells in the culture and is readily read in an ELISA microplate reader using an absorbance wavelength of 440 nm. These OD values are plotted against concentrations of different compounds and IC50 is determined for each compound.

The target of a further experiment is T1, Hs ODCase (Homo sapiens, UniProt P11172).
T1 construct: ODCase region of human UMP synthase
Description: Reversible (competitive) inhibition of ODCase, calorimetric assay. In kind it is biochemical. The following applies: 37° C., 60 nM enzyme. As for the experimental part: The stock solution of enzyme (60 μM) was prepared in 50 mM Tris (pH 7.5), 20 mM DTT, and 40 mM NaCl and incubated overnight at 4° C. This stock sample was later used to prepare the enzyme assay samples. The enzyme was kept on ice during the experiment. The enzyme stock was diluted with 50 mM Tris buffer containing 1 mM DTT to prepare 60 nM enzyme assay samples. The final substrate concentration was 15 or 20 μM. Concentrated samples of inhibitors were prepared in 50 mM Tris (pH 7.5). The volumes and concentrations of the enzyme and substrate were the same as described above for the reaction without inhibitor. All three compounds were tested in a competitive inhibition assay where enzyme is mixed with the inhibitor and the reaction is initiated by the substrate addition. Assay samples were prepared in 50 mM Tris, 1 mM DTT. The final assay concentration of 5-F-6-azido-UMP was 0, 0.25, 0.50, 0.75, 1.0 μM. The assay samples were prepared with 0, 0.2, 0.4, 1.0, and 2.0 μM and 0, 50, 100, 250, 500 μM 5-fluoro-6-ethyl-UMP.
The initial data analyses were done in Origin 7.0 software. The raw data representing the heat change over time were converted to the reaction rate at each recorded time point. A Michaelis-Menten plot was constructed and the data were fitted to MM equation (Eq. 1) to determine the kinetic parameters KM and kcat. The molar enthalpy (ΔH) was also automatically calculated.
To calculate the Ki the data were exported to GraFit 5.0 program. The data points were fitted to the competitive inhibition equation (Eq. 2) and the Ki was estimated from the Dixon plot.

Experiment [2] relates to OCI-AML-1. Description: In vitro cell proliferation assay (WST.1, Table 5). In kind it is cell-based. The following applies: Homo sapiens, 72 h; OCI-AML-1, day 3. As for the experimental part:
as §1, §2

In experiment [3] the test system is OCI-Ly-7. The experiment can be described thus: In vitro cell proliferation assay (WST.1, Table 5). In kind it is cell-based. The following applies: Homo sapiens, OCI-Ly7, 72 h; OCI-Ly-7, day 3. The method, then: as §1, §2
Experiment [4] deals with SKW3. Description: In vitro cell proliferation assay (WST.1, Table 5). In kind it is cell-based. The following applies: Homo sapiens, 72 h; SKW3, day 3. As for the experimental part: as §1, §2
The test system of the next experiment is MCF7. The experiment can be described thus: In vitro cell proliferation assay (WST.1, Table 5). In kind it is cell-based. The following applies: Homo sapiens, 72 h; MCF7, day 3. As for the experimental part:
as §1, §2

The subject of another experiment is MDA468. The experiment can be described thus: In vitro cell proliferation assay (WST.1, Table 5). The following applies: Homo sapiens, 72 h; MDA468, day 3. In kind it is cell-based. The method, then: as §1, §2
Another experiment relates to PC3. The experiment can be described thus: In vitro cell proliferation assay (WST.1, Table 5). In kind it is cell-based. The following applies: Homo sapiens, PC-3, 72 h; PC3, day 3. The method, then:
as §1, §2

Experiment [5] relates to OCI-My-2. The experiment can be described thus: In vitro cell proliferation assay (WST.1, Table 5). In kind it is cell-based. The following applies: Homo sapiens, 72 h; OCI-My-2, day 3. As for the experimental part:
as §1, §2

Another experiment deals with Mt ODCase (Methanothermobacter thermautotrophicus, UniProt O26232). Description: biochemical. Set-up: species or system M. thermoautotrophicum. The following applies: reversible inhibition, 20 nM enzyme, 40 μM OMP.
A further experiment concerns LOX. The experiment can be described thus: In vitro cell proliferation assay (WST.1, Table 5). The following applies: Homo sapiens, 72 h, day 3. In kind it is cell-based, human. As for the experimental part: as §1, §2
The test system of the next experiment is SNB19. The experiment can be described thus: In vitro cell proliferation assay (WST.1, Table 5). In kind it is cell-based. The following applies: Homo sapiens, SNB-19, 72 h; SNB19, day 3. The method, then: as §1, §2
The test system of the next experiment is OCI-AML-2. Description: In vitro cell proliferation assay (WST.1, Table 5). The following applies: Homo sapiens, OCI-AML2, 72 h; OCI-AML-2, day 3. In kind it is cell-based. As for the experimental part: as §1, §2
Another experiment concerns T47D. The experiment can be described thus: In vitro cell proliferation assay (WST.1, Table 5). In kind it is cell-based. The following applies: Homo sapiens, 72 h, day 3. As for the experimental part: as §1, §2
Another experiment concerns HS58T. The experiment can be described thus: In vitro cell proliferation assay (WST.1, Table 5). In kind it is cell-based. The following applies: Homo sapiens, 72 h, day 3. The method, then:
as §1, §2

In the next experiment the test system is OCVR4. The experiment can be described thus: In vitro cell proliferation assay (WST.1, Table 5). In kind it is cell-based. The following applies: Homo sapiens, 72 h; OCVR4, day 3. The method, then: as §1, §2
A further experiment concerns COLO205. Description: In vitro cell proliferation assay (WST.1, Table 5). The following applies: Homo sapiens, COLO 205, 72 h; COLO205, day 3. In kind it is cell-based. The method, then: as §1, §2
The next experiment concerns CCD967. The experiment can be described thus: In vitro cell proliferation assay (WST.1, Table 5). In kind it is cell-based. The following applies: Homo sapiens, CCD-967, 72 h; CCD967 normal skin line, day 3. The method, then:
as §1, §2

For experiment [6], the system named is OCI-AML-1. The experiment can be described thus: Apoptosis assay (Annexin V/PI, FACS). In kind it is cell-based, human. The following applies: OCI-AML-1, 4 μM. The method, then:
(§3) Cells were seeded in duplicate at 10^5 cells/ml in 24-well plates. 4 μM final concentration of compounds Io, In or Iag (Table 2) were added immediately after seeding. Water was added to the control wells. Every 24 hr, cells were harvested, washed in PBS, and stained with Annexin V/propidium iodide (PI) (1:200) using Annexin-V-FLUOS staining kit (Roche) according to the manufacturer's instructions. Annexin V is a Ca^2+− dependent phospholipids-binding protein with high affinity for phosphatidylserine (PS). It can be used as a probe to detect PS exposure on the outer leaflet of the cell membrane and is therefore widely used for detection of apoptotic cells. Unlike apoptotic cells (Annexin V^+/PI^−), necrotic cells are Annexin V^+PI^+. PI is a DNA stain. FACS was used to analyze the staining.
(§4) To determine whether reduced expansion of different cell lines in culture with Io, In, and Iag could be attributed to a decrease in cell survival, we stained treated and control cells with Annexin V and PI. Four cell lines (OCI-AML-1, OCI-Ly7, OCI-My2, and SKW3) were cultured in presence of 4 μM of […] for 4 days. Cells were harvested daily and Annexin V/PI staining was done by FACS. Our results clearly show an increase in the percentage of apoptotic (annexin V^+PI^−) cells cultured with Io, In, or Iag compared to the control cells (Table 6). Increased cell death was first observed on day 2 of culture.

The test system of experiment [7] is OCI-Ly-7. Description: Apoptosis assay (Annexin V/PI, FACS). In kind it is cell-based, human. The following applies: OCI-Ly-7, 4 μM. As for the experimental part: as §3, §4
In experiment [8] the test system is SKW3. The experiment can be described thus: Apoptosis assay (Annexin V/PI, FACS). In kind it is cell-based, human. The following applies: SKW3, 4 μM. As for the experimental part: as §3, §4
In experiment [9] the test system is OCI-My-2. Description: Apoptosis assay (Annexin V/PI, FACS). In kind it is cell-based, human. The following applies: OCI-My-2, 4 μM. The method, then:
as §3, §4

For the molecule `CCc1c(F)c(=O)[nH]c(=O)n1C1OC(CO)C(O)C1O` (stereo not drawn) [Iah], the IC50 in experiment [1] was 300 to 2100 nM; with OCI-AML-1 [2], 2100 nM; in the experiment on OCI-Ly-7 [3], 1900 nM; in the experiment with SKW3 [4], 1200 nM; with MCF7 it was 31400 nM; in the experiment on MDA468 it was 5300 nM. In addition, the values for the IC50 in the experiment on PC3, with OCI-My-2 [5] and with LOX were greater than 100000 nM, 1400 nM and 4500 nM, respectively. Besides, the figures for the Ki at Hs ODCase and on Mt ODCase were 353 ± 10 nM and 29000 ± 300 nM, respectively.

For `Nc1c(F)c(=O)[nH]c(=O)n1[C@@H]1O[C@H](CO)[C@@H](O)[C@H]1O` [In, 5-Fluoro-6-amino uridine], the IC50 in experiment [1] is 300 to 2100 nM; in the experiment on OCI-AML-1 [2], 700 nM; with OCI-Ly-7 [3], 1300 nM; in the experiment with SNB19, greater than 4000 nM; in the experiment with SKW3 [4] it was 600 nM; in the experiment with OCI-AML-2 it was 900 nM. Besides, the IC50 in the experiment on MCF7 was 1400 nM; in the experiment with T47D, greater than 4000 nM; in the experiment on MDA468, 2600 nM; with HS58T, greater than 4000 nM; with OCVR4 it was 2000 nM; with PC3, greater than 4000 nM. For the same molecule, the IC50 is 3300 nM in the experiment on COLO205, 900 nM in the experiment on OCI-My-2 [5], greater than 4000 nM in the experiment on CCD967 and 3400 nM with LOX. This molecule came in with a Ki on Hs ODCase of 16600 ± 700 nM.

For `[N-]=[N+]=Nc1c(F)c(=O)[nH]c(=O)n1[C@@H]1O[C@H](CO)[C@@H](O)[C@H]1O` [Io, 5-fluoro-6-azido uridine], the “Fold increase in % of apoptotic (annexinV+PI−) cells: drug-treated vs.control” value amounted to 1.5 fold with OCI-AML-1 [6] (day 1); 9.3 fold in the experiment on OCI-AML-1 [6] (day 2); 16 fold in the experiment with OCI-AML-1 [6] (day 3); 0.74 fold in the experiment on OCI-Ly-7 [7] (day 1); 1.9 fold in the experiment on OCI-Ly-7 [7] (day 2); 6.6 fold in the experiment on OCI-Ly-7 [7] (day 3). The “Fold increase in % of apoptotic (annexinV+PI−) cells: drug-treated vs.control” value with SKW3 [8] (day 1) was 1.2 fold; in the experiment on SKW3 [8] (day 2), 4.7 fold; in the experiment on SKW3 [8] (day 3), 4.4 fold; in the experiment on OCI-My-2 [9] (day 1) it was 0.86 fold; in the experiment with OCI-My-2 [9] (day 2), 1.9 fold; with OCI-My-2 [9] (day 3) it was 2.8 fold. Moreover, the 50% inhibitory concentration (IC50) in [1] was 300 to 2100 nM; with OCI-AML-1 [2] it was 600 nM; with OCI-Ly-7 [3], 700 nM; in the experiment on SNB19, greater than 4000 nM; in the experiment on SKW3 [4], 400 nM; in the experiment with OCI-AML-2, 700 nM. Besides, the IC50 with MCF7 was 1000 nM; in the experiment with T47D, greater than 4000 nM; with MDA468 it was 1800 nM; in the experiment on HS58T it was greater than 4000 nM; in the experiment with OCVR4, 1500 nM; in the experiment with PC3 it was greater than 4000 nM. For the same molecule, the IC50 with COLO205 is 3800 nM; in the experiment with OCI-My-2 [5], 600 nM; in the experiment on CCD967, greater than 4000 nM; with LOX it was 2300 nM. The affinity on Mt ODCase corresponds to a Ki of 357 ± 28 nM.
